Data on two compounds can be found in paper PMC9729869, “Functional verification and characterization of a type-III geranylgeranyl diphosphate synthase gene from Sporobolomyces pararoseus NGR” (Frontiers in Microbiology, 2022).

For the experiment, the target named is T1, CrtE (geranylgeranyl diphosphate synthase, GGPPS) (Sporobolomyces pararoseus, UniProt A0A2P1HA31).
T1 construct: dimer only in the predicted model
The experiment can be described thus: TLC of dephosphorylated product (GGOH). Format: biochemical.

T1 sequence (A0A2P1HA31 1-377): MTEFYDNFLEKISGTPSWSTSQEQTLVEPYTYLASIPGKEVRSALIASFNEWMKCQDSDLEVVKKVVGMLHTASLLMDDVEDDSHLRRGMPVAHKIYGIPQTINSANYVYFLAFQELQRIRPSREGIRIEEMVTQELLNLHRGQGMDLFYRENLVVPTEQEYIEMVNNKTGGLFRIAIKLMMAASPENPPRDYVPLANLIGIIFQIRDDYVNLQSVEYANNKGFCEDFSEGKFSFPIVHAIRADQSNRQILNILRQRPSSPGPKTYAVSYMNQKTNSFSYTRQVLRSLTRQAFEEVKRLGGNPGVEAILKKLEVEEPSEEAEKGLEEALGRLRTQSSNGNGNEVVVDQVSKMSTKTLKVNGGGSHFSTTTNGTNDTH

Consider `CC(C)=CCC/C(C)=C/CC/C(C)=C/COP(=O)(O)OP(=O)(O)O` [FPP, farnesyl diphosphate], for which the “TLC of dephosphorylated product (GGOH)” value (50 uM FPP, 50 uM IPP, 10 ng CrtE in 200 uL, 100 mM HEPES with 5 mM MgCl2 (enzyme exchange buffer) pH 7.5, 28 C, 2 h, Trx/His/S tags kept) is given as “largest number of GGPP was produced using FPP”.
With `C=C(C)CCOP(=O)(O)OP(=O)(O)O` [IPP, isopentenyl diphosphate], the “TLC of dephosphorylated product (GGOH)” value (50 uM IPP with 50 uM allylic co-substrate (FPP, GPP or DMAPP), else same) was “using three different allylic substrates and IPP as substrates for the reaction”.
